From patent US4761409A, “Cephem derivatives” (Sumitomo Pharmaceuticals Company, Limited, priority 1984, dated 1988)
≈ marks a conversion by molar mass, not a printed value.

Assays:
[1] = oral absorbability test: urinary excretion in mice after oral administration; format: in vivo; details: mouse, urine, dose: 50 mg/kg, read-out: Urinary excretion rate in mice after oral administration
[2] = test system: Staphylococcus epidermidis IAM1296; experiment: in vitro antimicrobial activity test (MIC); format: cell-based
Serratia marcescens X100 = experiment: in vitro antimicrobial activity test (MIC); format: cell-based
[3] = test system: Citrobacter freundii GN346; experiment: in vitro antimicrobial activity test (MIC); format: cell-based
[4] = test system: Escherichia coli NIHJ JC-2; experiment: in vitro antimicrobial activity test (MIC); format: cell-based; details: NIHJJC2
[5] = test system: Staphylococcus aureus 209P; experiment: in vitro antimicrobial activity test (MIC); format: cell-based
[6] = test system: resistant bacteria which produce β-lactamase; details: background, cephem antibiotics for oral administration; cited from earlier work
bacteria = details: background, compared with commercially available cephem antibiotics; cited from earlier work

CO/N=C(\C(=O)NC1C(=O)N2C(C(=O)OCc3oc(=O)oc3C)=C(CSc3ncns3)CS[C@H]12)c1cscn1 (stereo partly drawn) [Example 15, (5-Methyl-2-oxo-1,3-dioxolen-4-yl)methyl-7-[(Z)-2-methoxyimino-2-(thiazol-4-yl)acetamido]-3-(1,2,4-thiadiazol-5-yl)thiomethyl-3-cephem-4-carboxylate]
dose excreted [1]: 32%

CO/N=C(\C(=O)NC1C(=O)N2C(C(=O)O)=C(CSc3nc(C)ns3)CSC12)c1cscn1 (stereo not drawn) [Example 1, 7-[(Z)-2-Methoxyimino-2-(thiazol-4-yl)acetamido]-3-(3-methyl-1 2,4-thiadiazol-5-yl)thiomethyl-3-cephem-4-carboxylic acid]
MIC [2]: 1.56 µg/mL (≈ 3.04 µM)
MIC (Serratia marcescens X100): 0.78 µg/mL (≈ 1.52 µM)
MIC [3]: 0.78 µg/mL (≈ 1.52 µM)
MIC [4]: 0.1 µg/mL (≈ 0.195 µM)
MIC [5]: 0.1 µg/mL (≈ 0.195 µM)

CO/N=C(\C(=O)NC1C(=O)N2C(C(=O)O)=C(CSc3ncns3)CS[C@H]12)c1cscn1 (stereo partly drawn) [Example 2, 7-[(Z)-2-Methoxyimino-2-(thiazol-4-yl)acetamido]-3-(1,2,4-thiadiazol-5-yl)thiomethyl-3-cephem-4-carboxylic acid]
MIC [2]: 1.56 µg/mL (≈ 3.13 µM)
MIC (Serratia marcescens X100): 0.78 µg/mL (≈ 1.56 µM)
MIC [3]: 0.78 µg/mL (≈ 1.56 µM)
MIC [4]: 0.2 µg/mL (≈ 0.401 µM)
MIC [5]: 0.2 µg/mL (≈ 0.401 µM)

N[C@@H](C(=O)N[C@@H]1C(=O)N2C(C(=O)O)=C(CSc3c[nH]nn3)CS[C@H]12)c1ccc(O)cc1 [cefatrizine]
activity on resistant bacteria which produce β-lactamase [6]: ineffective
antimicrobial activity and width of the antimicrobial spectrum (bacteria): slightly inferior

N[C@@H](C(=O)N[C@@H]1C(=O)N2C(C(=O)O)=C(Cl)CS[C@H]12)c1ccccc1 [cefaclor]
activity on resistant bacteria which produce β-lactamase [6]: ineffective
antimicrobial activity and width of the antimicrobial spectrum (bacteria): slightly inferior

CCOC(=O)OC(C)OC(=O)C1=C(CSc2nc(C)ns2)CS[C@@H]2C(NC(=O)/C(=N\OC)c3cscn3)C(=O)N12 (stereo partly drawn) [Example 6, 1-Ethoxycarbonyloxyethyl 7-[(Z)-2-methoxyimino-2-(thiazol-4-yl)acetamido]-3-(3-methyl-1,2,4-thiadiazol-5-yl)thiomethyl-3-cephem-4-carboxylate]
dose excreted [1]: 32%

CC1=C(C(=O)O)N2C(=O)[C@@H](NC(=O)[C@H](N)c3ccccc3)[C@H]2SC1 [cephalexin]
activity on resistant bacteria which produce β-lactamase [6]: ineffective
antimicrobial activity and width of the antimicrobial spectrum (bacteria): slightly inferior
